The test system of series [1] is production of the toxins of Staphylococcus aureus 04018 strain (MDBK cells readout). In kind it is cell-based. The note with it: for Cell survival (%) / inhibitory effect on the production of the toxins of Staphylococcus aureus (in words): MDBK cells; for MDBK cell OD (M ± SD): OD 595 nm, MTT; for inhibitory effect on the production of the toxins of Staphylococcus aureus (in words): peptide in normal saline (MRK as suspension). As for the experimental part: For the determination method for inhibitory level on the toxins of Staphylococcus aureus, please refer to literatures. (Yang G, et al. A novel peptide screened by phage display can mimic TRAP antigen epitope against Staphylococcus aureus infections. J Biol. Chem. 2005, 280: 27431-27435), details are as follows:
1) Staphylococcus aureus strain 04018 frozen in refrigerator is scribbed to a blood plate or BHI plate; cultured in an incubator for 16 hours until monoclonal colony is observed in the plate, and placed in a 4° C. refrigerator for standby use.
2) After 8 hours, the monoclonal colony in the plate is randomly selected, 25 mL test tubes of the BHI medium is inoculated with the monoclonal colony; and then the two test tubes are shook in a shaking table at a temperature of 37° C. at a speed of 200 rpm, the bacteria are collected after 16 hours, the bacteria solution in the two test tubes are mixed evenly for standby use.
3) The chemosynthetic peptide MRK and MRG and the positive control (the toxins of Staphylococcus aureus inhibitor protein TP) are dissolved in normal saline, diluted to different concentrations, and added to bacteria BHI medium. The final concentrations of small peptides are 0, 1.5, 5, 15, 50, 150 and 500 μg/mL respectively. The solvent control is the same amount of normal saline; the negative control is the BHI medium of Staphylococcus aureus; and a normal cell control is also provided.
4) The chemosynthetic peptides of different concentrations are co-incubated with Staphylococcus aureus 04018 and cultured for 6 hours, and then bacteria are collected. 700 μL bacterial suspensions are added to EP tubes, centrifuged at 8000 rpm for 5 min, supernatants are obtained, boiled at a temperature of 100° C. for 7 min, and centrifuged at a speed of 14000 rpm for 10 min. 10 μL supernatants are taken, added into a 96-microwell cell culture plate inoculated with 1×10<5>/mL MDBK cells. After continuous culture for 18-20 hours, 5 μL MTT solution (5 mg/mL) is added to each microwell, 100 μL 10% SDS+0.01M HCl solution is added to each microwell after 3 hours. After culture in the incubator at a temperature of 37° C. for 20 hours, detection at 595 nm and reading are carried out by an enzyme-linked immunometricmeter.

In series [2] the test system is Staphylococcus aureus Newman strain. Particulars: 5 mg/kg body weight, injected 30 minutes after infection; versus aseptic water control; one week.
Method: 1) Preparation of Staphylococcus aureus Newman Solution
Newman monoclonal strain with hemolytic circles is selected, 3 mL BHI medium is inoculated with the strain, and the strain is shook overlight at a speed of 220 rpm and a temperature of 37° C.
1 mL overnight strain is centrifuged at a speed of 5000 rpm for 2 min, and the supernatant is removed.
20 mL aseptic PBS is added for resuspension at a speed of 5000 rpm for 5 min, and the supernatant is removed.
5 mL aseptic PBS resuspended bacteria is diluted to OD600=0.
2) Establishment of Model of Bacteremia and Determination of Polypeptide Activity in BALB/c Mice
BALB/c mice (female, 8 weeks) are subjected to intraperitoneal injection of anesthetic (1% pentobarbital) (200 μL for each mouse).
Newman solution (OD600=0.2, 100 μL for each mouse) is injected into retrobulbar venous plexus.
After 30 minutes of infection, 6 mice are injected with polypeptide at enterocoelia (0.5 mg/mL, 200 μL for each mouse) and 7 mice in control are injected with sterile water (200 μL for each mouse).
The times of the mouse in one week are recorded and used for drawing survival curves.

As usually defined, the solubility is how much of the substance goes into solution per volume. Low readings indicate a poorly soluble substance, high ones a readily soluble substance.

Where two headings read alike, the source gives them in different places. Bridge positions count the residues as written; N and C are the ends. Peptide text beside a SMILES is read from it. Some results are limits rather than exact numbers.

Compound `NC(=O)CC[C@@H]1NC(=O)[C@@H](N)CSSC[C@@H](C(=O)O)NC(=O)[C@H](Cc2ccc(O)cc2)NC(=O)[C@H](Cc2c[nH]c3ccccc23)NC(=O)[C@H](Cc2c[nH]cn2)NC(=O)[C@H](Cc2c[nH]c3ccccc23)NC(=O)[C@H](Cc2c[nH]c3ccccc23)NC(=O)[C@H](Cc2c[nH]cn2)NC1=O` [MRK, CQHWWHWYC] (H-CQHWWHWYC-OH; disulfide 1-9) returned a solubility of less than 100 µg/mL. For the same compound, in series [1] (0.005 mg/mL peptide), the “Cell survival (%)” value was 25% and the “MDBK cell OD (M ± SD)” value was 0.123 ± 0.011. In series [1] (0.05 mg/mL peptide), the “Cell survival (%)” value worked out at 20% and the “MDBK cell OD (M ± SD)” value is 0.098 ± 0.014. In series [1] (0.15 mg/mL peptide), the “Cell survival (%)” value came out at 35% and the “MDBK cell OD (M ± SD)” value was found to be 0.171 ± 0.001. Also, the “inhibitory effect on the production of the toxins of Staphylococcus aureus (in words)” value in series [1] is “could not inhibit the production of the toxins”. The “death / survival rate in bacteremia (in words)” value in series [2] is given as “good inhibitory effect on Staphylococcus aureus infection in vivo”.
On to “CH3(CH2)10CO-Gly-Cyclo(Cys-Gln-His-D-Trp-Trp-His-Trp-Tyr-Cys)-Arg-Arg-Arg-NH2 [MRG]”, for which the “inhibitory effect on toxin production compared with TP protein (positive control)” value in series [1] (5 μg/mL small peptide) was “greater than that of TP protein”. The “Cell survival (%)” value in series [1] (0.005 mg/mL peptide) came out at 60%; in series [1] (0.05 mg/mL peptide), 92%; in series [1] (0.15 mg/mL peptide), 96%. For the same compound, the entries for the “MDBK cell OD (M ± SD)” value in series [1] (0.005 mg/mL peptide), in series [1] (0.05 mg/mL peptide) and in series [1] (0.15 mg/mL peptide) were 0.296 ± 0.001, 0.454 ± 0.015 and 0.473 ± 0.004, respectively. In series [1], the “inhibitory effect on the production of the toxins of Staphylococcus aureus (in words)” value is reported as “obvious protective effect on the proliferation inhibition of MDBK cells”. For the same compound, the “death / survival rate in bacteremia (in words)” value in series [2] is “survival rate is greatly improved”.
